The assay concerns the target Superoxide dismutase [Cu-Zn] (Homo sapiens) (UniProt P00441). Description: Binding affinity to human EGFP-tagged SOD1 A4V mutant mRNA expressed in mouse Neuro2a cells assessed as reduction in cells bearing inclusions at 25 uM measured 72 hrs post transfection by Hoechst33342 staining-based epifluorescence microscopic analysis (reference value: 19 to 21%). Format: cell-based. Also on record: scale not given: the % may be the effect or the level left.

4 molecules from ChEMBL document CHEMBL3774353, “Efficacy of peptide nucleic acid and selected conjugates against specific cellular pathologies of amyotrophic lateral sclerosis” (Bioorg Med Chem, 2016) can be followed below.

Superoxide dismutase [Cu-Zn] (Homo sapiens), sequence (P00441 whole entry): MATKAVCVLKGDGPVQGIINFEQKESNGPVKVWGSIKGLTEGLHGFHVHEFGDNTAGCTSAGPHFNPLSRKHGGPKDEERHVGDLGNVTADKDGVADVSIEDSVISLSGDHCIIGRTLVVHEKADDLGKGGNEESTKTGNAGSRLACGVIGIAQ

As to `CCOC(=O)C1(C)CCc2c(Cn3cc(CCC(=O)NCCN(CC(=O)NCCN(CC(=O)NCCN(CC(=O)NCCN(CC(=O)NCCN(CC(=O)NCCN(CC(=O)NCCN(CC(=O)NCCN(CC(=O)NCCN(CC(N)=O)C(=O)Cn4cnc5c(=O)[nH]c(N)nc54)C(=O)Cn4ccc(N)nc4=O)C(=O)Cn4cnc5c(N)ncnc54)C(=O)Cn4ccc(N)nc4=O)C(=O)Cn4cnc5c(=O)[nH]c(N)nc54)C(=O)Cn4cnc5c(N)ncnc54)C(=O)Cn4ccc(N)nc4=O)C(=O)Cn4cc(C)c(=O)[nH]c4=O)C(=O)Cn4cc(C)c(=O)[nH]c4=O)nn3)c(OC(C)=O)c(C)c(C)c2O1` (centres undefined), the Activity came to 14%.

For `O=C(CS)N[C@@H]1CCCC[C@H]1NC(=O)CS` (racemic), the Activity was 14%.

As for `CC(=O)Oc1c(C)c(C)c2c(c1Cn1cc(CCC(=O)NCCN(CC(=O)NCCN(CC(=O)NCCN(CC(=O)NCCN(CC(=O)NCCN(CC(=O)NCCN(CC(=O)NCCN(CC(=O)NCCN(CC(=O)NCCN(CC(N)=O)C(=O)Cn3cnc4c(=O)[nH]c(N)nc43)C(=O)Cn3ccc(N)nc3=O)C(=O)Cn3cnc4c(N)ncnc43)C(=O)Cn3ccc(N)nc3=O)C(=O)Cn3cnc4c(=O)[nH]c(N)nc43)C(=O)Cn3cnc4c(N)ncnc43)C(=O)Cn3ccc(N)nc3=O)C(=O)Cn3cc(C)c(=O)[nH]c3=O)C(=O)Cn3cc(C)c(=O)[nH]c3=O)nn1)CCC(C)(CCCC(C)CCCC(C)CCCC(C)C)O2` (centres undefined), the Activity was found to be 17%. `Cc1c(C)c2c(c(C)c1O)CCC(C)(C(=O)NCCN(CC(=O)NCCN(CC(=O)NCCN(CC(=O)NCCN(CC(=O)NCCN(CC(=O)NCCN(CC(=O)NCCN(CC(=O)NCCN(CC(=O)NCCN(CC(N)=O)C(=O)Cn1cnc3c(=O)[nH]c(N)nc31)C(=O)Cn1ccc(N)nc1=O)C(=O)Cn1cnc3c(N)ncnc31)C(=O)Cn1ccc(N)nc1=O)C(=O)Cn1cnc3c(=O)[nH]c(N)nc31)C(=O)Cn1cnc3c(N)ncnc31)C(=O)Cn1ccc(N)nc1=O)C(=O)Cn1cc(C)c(=O)[nH]c1=O)C(=O)Cn1cc(C)c(=O)[nH]c1=O)O2` (centres undefined): the Activity worked out at 16%.
